Data: EP0205308B1, “Scytophycins” (Moore, Richard Elliott, priority 1985, dated 1986)
Marks after values point to notes of the source that are not given here. Starred links: 1 amine or outer side, 2 acyl side, 3 side chain; linkers in the order of their positions; H or OH if unused. Non-standard residues stand in square brackets, D forms with d. Residues, ends and D or L forms follow the SMILES beside them. X1 = CCC(N[*:1])C(C)C(=O)O[C@H](C(=O)[*:2])[C@@H](C)CC; X2 = C[C@H](N[*:1])C(=O)C(C)(C)C(=O)[*:2]; NMeY = CN[C@@H](Cc1ccc(O)cc1)C(=O)O; NMeI = CC[C@H](C)[C@H](NC)C(=O)O; NMeV = CN[C@H](C(=O)O)C(C)C

Columns and labels:
Assay in all cases: In vitro agar-diffusion test
Type in all cases: cell-based
Rhizoctonia solani X767 = tested on: Rhizoctonia solani X767; design: key: - = not active
Method: (§1) The activity of scytophycin compounds against pathogenic fungi in standard in vitro agar-diffusion tests, using ¼"(6mm) discs holding ~30 µL of test solution, is illustrated in Tables 6-12.

[1] = tested on: Sclerotina homoeocarpa X768; design: key: - = not active
Method: as §1

Pythium ultimum X751 = tested on: Pythium ultimum X751
Method: as §1

[2] = tested on: Saccharomyces pastorianus X52; design: key: T = trace
Method: as §1

Candida albicans X657 = tested on: Candida albicans X657
Method: as §1

Neurospora crassa X846 = tested on: Neurospora crassa X846
Method: as §1

Molecule: CCC1NC(=O)[C@H](C)NC(=O)C(C)(C)C(=O)[C@H](C)NC(=O)[C@H](Cc2ccc(OC)cc2)N(C)C(=O)[C@H](C(C)C)N(C)C(=O)CNC(=O)[C@H]([C@@H](C)CC)N(C)C(=O)CNC(=O)[C@H]([C@@H](C)CC)OC(=O)C1C (stereo partly drawn) [Majusculamide C, reference compound] (cyclo(A[X1]G[NMeI]G[NMeV][NMeY](Me)[X2]))
- Size of Zone of Inhibition (mm) (Rhizoctonia solani X767; Table 10, 0.01 mg/mL): -
- Size of Zone of Inhibition (mm) (Rhizoctonia solani X767; Table 10, 0.1 mg/mL): -
- Size of Zone of Inhibition (mm) (Rhizoctonia solani X767; Table 10, 1.0 mg/mL): 20^a mm
- Size of Zone of Inhibition (mm) ([1]; Table 10, 0.01 mg/mL): -
- Size of Zone of Inhibition (mm) ([1]; Table 10, 0.1 mg/mL): -
- Size of Zone of Inhibition (mm) ([1]; Table 10, 1.0 mg/mL): 17 mm
- Size of Zone of Inhibition (mm) (Pythium ultimum X751; Table 10, 0.01 mg/mL): 10^a mm
- Size of Zone of Inhibition (mm) (Pythium ultimum X751; Table 10, 0.1 mg/mL): 18 mm
- Size of Zone of Inhibition (mm) (Pythium ultimum X751; Table 10, 1.0 mg/mL): >30 mm

Molecule: Scytophycin C
- Size of Zone of Inhibition (mm) ([2]; Table 9, 1 mg/mL): 17 mm
- Size of Zone of Inhibition (mm) (Rhizoctonia solani X767; Table 12, 0.5 mg/mL): 30 mm
- Size of Zone of Inhibition (mm) ([1]; Table 12, 0.5 mg/mL): 32 mm
- Size of Zone of Inhibition (mm) (Candida albicans X657; Table 9, 1 mg/mL): 22 mm
- Size of Zone of Inhibition (mm) (Pythium ultimum X751; Table 12, 0.5 mg/mL): 12^a mm
- Size of Zone of Inhibition (mm) (Neurospora crassa X846; Table 9, 1 mg/mL): 30 mm

Molecule: Scytophycin D
- Size of Zone of Inhibition (mm) ([2]; Table 8, 0.33 mg/mL): T^a
- Size of Zone of Inhibition (mm) ([2]; Table 8, 1 mg/mL): 12 mm
- Size of Zone of Inhibition (mm) (Rhizoctonia solani X767; Table 11, 0.33 mg/mL): 22 mm
- Size of Zone of Inhibition (mm) (Rhizoctonia solani X767; Table 11, 1.0 mg/mL): 30 mm
- Size of Zone of Inhibition (mm) ([1]; Table 11, 0.33 mg/mL): 20 mm
- Size of Zone of Inhibition (mm) ([1]; Table 11, 1.0 mg/mL): 26 mm
- Size of Zone of Inhibition (mm) (Candida albicans X657; Table 8, 0.33 mg/mL): 14 mm
- Size of Zone of Inhibition (mm) (Candida albicans X657; Table 8, 1 mg/mL): 19 mm
- Size of Zone of Inhibition (mm) (Pythium ultimum X751; Table 11, 0.33 mg/mL): 24 mm
- Size of Zone of Inhibition (mm) (Pythium ultimum X751; Table 11, 1.0 mg/mL): 27 mm
- Size of Zone of Inhibition (mm) (Neurospora crassa X846; Table 8, 0.33 mg/mL): 20 mm
- Size of Zone of Inhibition (mm) (Neurospora crassa X846; Table 8, 1 mg/mL): 25 mm
